± gives the expanded uncertainty stated by the source.
Assays:
[1] = 101.33 kPa, Liquid, Vibrating tube method
[2] = refractive index (Na D-line) (dimensionless); settings: 101.33 kPa, Liquid, Standard Abbe refractometry

mass density ([1]; 293.15 K) [kg/m3]	mass density ([1]; 295.15 K) [kg/m3]	mass density ([1]; 297.15 K) [kg/m3]	mass density ([1]; 298.15 K) [kg/m3]	mass density ([1]; 301.35 K) [kg/m3]	refractive index ([2]; 293.15 K)	refractive index ([2]; 298.15 K)	mass density ([1]; 298.6 K) [kg/m3]	SMILES
673.227 ± 0.17	670.871 ± 0.17	668.986 ± 0.17	668.033 ± 0.17	664.998 ± 0.17	1.38796 ± 0.00041	1.3851 ± 0.00041	–	C=CCCCC [hex-1-ene]
664.225 ± 0.17	662.39 ± 0.18	660.589 ± 0.17	659.736 ± 0.18	–	1.37654 ± 0.00041	1.37387 ± 0.00041	659.308 ± 0.18	CCC(C)CC [3-methylpentane]
